Data on 17 compounds can be found in ChEMBL document CHEMBL5126592, “Design, synthesis and activity against drug-resistant bacteria evaluation of C-20, C-23 modified 5-O-mycaminosyltylonolide derivatives” (Eur J Med Chem, 2022).

≈ marks a conversion by molar mass, not a printed value.

Type in all cases: functional
Conditions in all cases: time 16-20 hrs

The test system of one assay is Staphylococcus aureus. In words: Antibacterial activity against Staphylococcus aureus ATCC 25923 incubated for 16 to 20 hrs by broth microdilution method.
The next assay deals with Escherichia coli. In words: Antibacterial activity against Escherichia coli ATCC 25922 incubated for 16 to 20 hrs by broth microdilution method.
For another assay, the system named is Cronobacter sakazakii. The assay is described as follows: Antibacterial activity against Cronobacter sakazakii ATCC 29544 incubated for 16 to 20 hrs by broth microdilution method.
A further assay relates to Klebsiella pneumoniae. The assay is described as follows: Antibacterial activity against Klebsiella pneumoniae ATCC 13883 incubated for 16 to 20 hrs by broth microdilution method.

As to `CCCCN(CCCC)C[C@H]1/C=C(C)/C=C/C(=O)[C@H](C)C[C@H](CCN(C)Cc2cn(-c3cnc4ccccc4c3)nn2)[C@H](O[C@@H]2O[C@H](C)[C@@H](O)[C@H](N(C)C)[C@H]2O)[C@@H](C)[C@H](O)CC(=O)O[C@@H]1CC`, the MIC in the assay with Staphylococcus aureus was determined as 0.5 µg/mL (≈ 0.536 µM); with Escherichia coli it was 8 µg/mL (≈ 8.58 µM); with Cronobacter sakazakii, 16 µg/mL (≈ 17.2 µM); against Klebsiella pneumoniae, 16 µg/mL (≈ 17.2 µM).
`CC[C@H]1OC(=O)C[C@@H](O)[C@H](C)[C@@H](O[C@@H]2O[C@H](C)[C@@H](O)[C@H](N(C)C)[C@H]2O)[C@@H](CCN(Cc2cccnc2)Cc2cn(-c3cnc4ccccc4c3)nn2)C[C@@H](C)C(=O)/C=C/C(C)=C/[C@@H]1CO`: the MIC with Staphylococcus aureus worked out at 0.5 µg/mL (≈ 0.557 µM); against Escherichia coli it was 32 µg/mL (≈ 35.6 µM); with Cronobacter sakazakii it was 32 µg/mL (≈ 35.6 µM); against Klebsiella pneumoniae, 32 µg/mL (≈ 35.6 µM).
Take `CC[C@H]1OC(=O)C[C@@H](O)[C@H](C)[C@@H](O[C@@H]2O[C@H](C)[C@@H](O)[C@H](N(C)C)[C@H]2O)[C@@H](CCN(C)Cc2cn(-c3cnc4ccccc4c3)nn2)C[C@@H](C)C(=O)/C=C/C(C)=C/[C@@H]1CN1CCC(O)CC1`: the MIC against Staphylococcus aureus worked out at 8 µg/mL (≈ 8.85 µM); in the assay with Escherichia coli it was 16 µg/mL (≈ 17.7 µM); against Cronobacter sakazakii, 32 µg/mL (≈ 35.4 µM); against Klebsiella pneumoniae, 16 µg/mL (≈ 17.7 µM).
Turning to `CC[C@H]1OC(=O)C[C@@H](O)[C@H](C)[C@@H](O[C@@H]2O[C@H](C)[C@@H](O)[C@H](N(C)C)[C@H]2O)[C@@H](CCN(Cc2ccc(OC)cc2)Cc2cn(-c3cnc4ccccc4c3)nn2)C[C@@H](C)C(=O)/C=C/C(C)=C/[C@@H]1CN1CCCCCC1`, the MIC is 0.5 µg/mL (≈ 0.496 µM) in the assay on Staphylococcus aureus, 8 µg/mL (≈ 7.93 µM) against Escherichia coli, 32 µg/mL (≈ 31.7 µM) against Cronobacter sakazakii and 4 µg/mL (≈ 3.97 µM) with Klebsiella pneumoniae.
The corresponding values for `CC[C@H]1OC(=O)C[C@@H](O)[C@H](C)[C@@H](O[C@@H]2O[C@H](C)[C@@H](O)[C@H](N(C)C)[C@H]2O)[C@@H](CCN(Cc2ccc(OC)cc2)Cc2cn(-c3cnc4ccccc4c3)nn2)C[C@@H](C)C(=O)/C=C/C(C)=C/[C@@H]1CN1CCCCC1` are 0.5 µg/mL (≈ 0.503 µM), 4 µg/mL (≈ 4.02 µM), 16 µg/mL (≈ 16.1 µM) and 8 µg/mL (≈ 8.05 µM).
The corresponding values for `CC[C@H]1OC(=O)C[C@@H](O)[C@H](C)[C@@H](O[C@@H]2O[C@H](C)[C@@H](O)[C@H](N(C)C)[C@H]2O)[C@@H](CCN(Cc2ccccc2)Cc2cn(-c3cnc4ccccc4c3)nn2)C[C@@H](C)C(=O)/C=C/C(C)=C/[C@@H]1CN1CCCCCCC1` are 1 µg/mL (≈ 1.01 µM), 8 µg/mL (≈ 8.06 µM), 16 µg/mL (≈ 16.1 µM) and 8 µg/mL (≈ 8.06 µM).
The matching figures for `CC[C@H]1OC(=O)C[C@@H](O)[C@H](C)[C@@H](O[C@@H]2O[C@H](C)[C@@H](O)[C@H](N(C)C)[C@H]2O)[C@@H](CCN(Cc2ccc(C(F)(F)F)cc2)Cc2cn(-c3cnc4ccccc4c3)nn2)C[C@@H](C)C(=O)/C=C/C(C)=C/[C@@H]1CN1CCCCCCC1`: 1 µg/mL (≈ 0.943 µM), 4 µg/mL (≈ 3.77 µM), 32 µg/mL (≈ 30.2 µM) and 8 µg/mL (≈ 7.54 µM).
As to `CC[C@H]1OC(=O)C[C@@H](O)[C@H](C)[C@@H](O[C@@H]2O[C@H](C)[C@@H](O)[C@H](N(C)C)[C@H]2O)[C@@H](CCN(Cc2ccc(C(F)(F)F)cc2)Cc2cn(-c3cnc4ccccc4c3)nn2)C[C@@H](C)C(=O)/C=C/C(C)=C/[C@@H]1CN1CC(C)CC(C)C1` (stereo partly drawn), the MIC against Staphylococcus aureus turned out to be 4 µg/mL (≈ 3.77 µM); against Escherichia coli it was 32 µg/mL (≈ 30.2 µM); against Cronobacter sakazakii, 16 µg/mL (≈ 15.1 µM); with Klebsiella pneumoniae, 16 µg/mL (≈ 15.1 µM).
For the compound `CCCN(C)C[C@H]1/C=C(C)/C=C/C(=O)[C@H](C)C[C@H](CCN(C)Cc2cn(-c3cnc4ccccc4c3)nn2)[C@H](O[C@@H]2O[C@H](C)[C@@H](O)[C@H](N(C)C)[C@H]2O)[C@@H](C)[C@H](O)CC(=O)O[C@@H]1CC`, the MIC with Staphylococcus aureus was 0.5 µg/mL (≈ 0.571 µM); in the assay on Escherichia coli it was 8 µg/mL (≈ 9.13 µM); in the assay with Cronobacter sakazakii, 16 µg/mL (≈ 18.3 µM); in the assay with Klebsiella pneumoniae, 8 µg/mL (≈ 9.13 µM).
For `CC[C@H]1OC(=O)C[C@@H](O)[C@H](C)[C@@H](O[C@@H]2O[C@H](C)[C@@H](O)[C@H](N(C)C)[C@H]2O)[C@@H](CCN(Cc2ccc(O)c(OC)c2)Cc2cn(-c3cnc4ccccc4c3)nn2)C[C@@H](C)C(=O)/C=C/C(C)=C/[C@@H]1CO`, the MIC against Staphylococcus aureus came to 0.5 µg/mL (≈ 0.53 µM); with Escherichia coli, 16 µg/mL (≈ 17 µM); against Cronobacter sakazakii, 16 µg/mL (≈ 17 µM); against Klebsiella pneumoniae, 16 µg/mL (≈ 17 µM).
`CC[C@H]1OC(=O)C[C@@H](O)[C@H](C)[C@@H](O[C@@H]2O[C@H](C)[C@@H](O)[C@H](N(C)C)[C@H]2O)[C@@H](CCN(Cc2ccc(OC)cc2)Cc2cn(-c3cnc4ccccc4c3)nn2)C[C@@H](C)C(=O)/C=C/C(C)=C/[C@@H]1CN1CCC(O)CC1`: the minimum inhibitory concentration (MIC) was 2 µg/mL (≈ 1.98 µM) in the assay on Staphylococcus aureus, 8 µg/mL (≈ 7.92 µM) with Escherichia coli, 32 µg/mL (≈ 31.7 µM) in the assay on Cronobacter sakazakii and 8 µg/mL (≈ 7.92 µM) against Klebsiella pneumoniae.
Turning to `CC[C@H]1OC(=O)C[C@@H](O)[C@H](C)[C@@H](O[C@@H]2O[C@H](C)[C@@H](O)[C@H](N(C)C)[C@H]2O)[C@@H](CCN(Cc2cn(-c3cnc4ccccc4c3)nn2)Cc2ccco2)C[C@@H](C)C(=O)/C=C/C(C)=C/[C@@H]1CN1CCC(O)CC1`, the MIC in the assay on Staphylococcus aureus was 4 µg/mL (≈ 4.12 µM); in the assay on Escherichia coli it was 8 µg/mL (≈ 8.25 µM); in the assay with Cronobacter sakazakii, 16 µg/mL (≈ 16.5 µM); with Klebsiella pneumoniae, 16 µg/mL (≈ 16.5 µM).
For `CC[C@H]1OC(=O)C[C@@H](O)[C@H](C)[C@@H](O[C@@H]2O[C@H](C)[C@@H](O)[C@H](N(C)C)[C@H]2O)[C@@H](CCN(Cc2cn(-c3cnc4ccccc4c3)nn2)Cc2ccco2)C[C@@H](C)C(=O)/C=C/C(C)=C/[C@@H]1CN(C)C`, the MIC against Staphylococcus aureus amounted to 0.5 µg/mL (≈ 0.547 µM); against Escherichia coli, 4 µg/mL (≈ 4.38 µM); in the assay with Cronobacter sakazakii, 16 µg/mL (≈ 17.5 µM); in the assay with Klebsiella pneumoniae it was 8 µg/mL (≈ 8.75 µM).
The matching figures for `CC[C@H]1OC(=O)C[C@@H](O)[C@H](C)[C@@H](O[C@@H]2O[C@H](C)[C@@H](O)[C@H](N(C)C)[C@H]2O)[C@@H](CCN(Cc2ccc(N(C)C)cc2)Cc2cn(-c3cnc4ccccc4c3)nn2)C[C@@H](C)C(=O)/C=C/C(C)=C/[C@@H]1CN1CCC(O)CC1`: 2 µg/mL (≈ 1.95 µM), 16 µg/mL (≈ 15.6 µM), 32 µg/mL (≈ 31.3 µM) and 16 µg/mL (≈ 15.6 µM).
The matching figures for `CC[C@H]1OC(=O)C[C@@H](O)[C@H](C)[C@@H](O[C@@H]2O[C@H](C)[C@@H](O)[C@H](N(C)C)[C@H]2O)[C@@H](CCN(Cc2ccc(N(C)C)cc2)Cc2cn(-c3cnc4ccccc4c3)nn2)C[C@@H](C)C(=O)/C=C/C(C)=C/[C@@H]1CN1CCCCC1`: 0.5 µg/mL (≈ 0.496 µM), 4 µg/mL (≈ 3.97 µM), 8 µg/mL (≈ 7.94 µM) and 8 µg/mL (≈ 7.94 µM).
The corresponding values for `CC[C@H]1OC(=O)C[C@@H](O)[C@H](C)[C@@H](O[C@@H]2O[C@H](C)[C@@H](O)[C@H](N(C)C)[C@H]2O)[C@@H](CCN(Cc2ccc(Br)cc2)Cc2cn(-c3cnc4ccccc4c3)nn2)C[C@@H](C)C(=O)/C=C/C(C)=C/[C@@H]1CO` are 0.125 µg/mL (≈ 0.128 µM), 8 µg/mL (≈ 8.2 µM), 32 µg/mL (≈ 32.8 µM) and 32 µg/mL (≈ 32.8 µM).
As to `CCCCN(CCCC)C[C@H]1/C=C(C)/C=C/C(=O)[C@H](C)C[C@H](CCN(Cc2ccc(Br)cc2)Cc2cn(-c3cnc4ccccc4c3)nn2)[C@H](O[C@@H]2O[C@H](C)[C@@H](O)[C@H](N(C)C)[C@H]2O)[C@@H](C)[C@H](O)CC(=O)O[C@@H]1CC`, the MIC stood at 1 µg/mL (≈ 0.92 µM) against Staphylococcus aureus, 8 µg/mL (≈ 7.36 µM) in the assay on Escherichia coli, 16 µg/mL (≈ 14.7 µM) in the assay on Cronobacter sakazakii and 16 µg/mL (≈ 14.7 µM) with Klebsiella pneumoniae.
